In the NIST ThermoML archive (doi:10.1021/je700179q) one finds Normal melting temperature data, which are given here for 1 molecule.

The conditions of the data set: Crystal; visual observation.

Numbers after ± are expanded uncertainties.

On to `c1ccc2c(c1)Cc1ccccc1-2` [fluorene], for which the Normal melting temperature is 116.00 ± 1 °C.
